Test [1] has as its system footshock-induced ultrasonic vocalisation. The experiment in a line: Footshock-induced ultrasonic vocalisation test in adult rats. Type of test: in vivo, rat. The settings on record: male Wistar rats, drug given 30 min before test, four 1.0 mA footshocks. From the text:
The Footshock-induced Vocalisation Test in Adult Rats. The footshock-induced vocalisation test in adult rats (described in detail in Sánchez C., Effect of serotonergic drugs on footshock-induced ultrasonic vocalization in adult male rats. Behav. Pharmacol. 1993; 4:267-277) is a test for anxiolytic and anti-panic effects. Male rats (Wistar WU, Charles River, Germany), weighing 150-175 g at the beginning of the study were used. Briefly, test cages (22 cm×22 cm×22 cm) made of grey Perspex and equipped with a metal grid floor were used. Footshocks were delivered from a two pole shocker and a microphone sensitive to ultrasounds in the range of 20-30 kHz was placed in the centre of the lid of the test cage. The ultrasounds were sent from the microphone to a preamplifier and converted from AC signals to DC signals in a signal rectifier. The accumulated time, in which the voltage of the rectified signal was larger than the voltage of a previously determined threshold level, was recorded. Twenty-four hours before the first test session the animals were primed. A rat was placed in each test cage and received, immediately thereafter, four 1.0 mA inescapable footshocks each of a duration of 10 sec and with an intershock interval of 5 sec. The animals were left in the test cage for 6 min after the last shock. […] The total time spent on vocalisation was recorded. […]

For test [2], the system named is schedule-induced polydipsia (water intake). In words: Schedule-induced polydipsia in rats. Type of test: in vivo, rat. The note with it: male wistar rats, oral 60 min prior to testing; Citalopram 40 mg/kg, Lu 26-054 20 mg/kg. From the text:
Schedule-induced Polydipsia Food deprived rats exposed to a procedure in which food is delivered intermittently will drink large amounts of water if given the opportunity to do so. This behavioural phenomenon is called schedule-induced polydipsia and can be considered as an excessive expression of a normal behaviour. Schedule-induced polydipsia is regarded as a model of obsessive-compulsive disorder (Woods et al. 1993). Male wistar rats (Møllegard) housed in pairs and kept on a food-restricted diet (80% of normal body weight) for 2 weeks before the start of testing and throughout the duration of testing. To induce polydipsia rats were placed in test chambers where a pellet dispenser automatically dispensed one 60 mg food pellet every 60 seconds. Water was available at all times in the test chamber. Rats were tested 4-5 times per week, after 3-4 weeks training 70% of the rats were drinking >10 ml per 30 min test session. Once the rats had attained a steady drinking level compounds could be tested. Citalopram (40 mg/kg) or Lu 26-054 (20 mg/kg) were administered orally 60 min prior to testing and at 10:00 on the non-test days. The water intake was presented as a percentage of the pre-dosing (baseline) level.

The test system of test [3] is mice black and white box behaviour. The experiment in a line: Black and White Box Test in mice. Type of test: in vivo, mouse. The note with it: male mice, pretreatment time 30 min, test duration 5 min. How it is done:
Black and White Box Test This is a test for anxiolytic effects. The test model is further described in Sánchez, C. (1995) Pharmacol. Toxicol. 77, 71-78. Male mice (Lundbeck strain, Charles River, Germany) weighing 30-35 g were housed in groups of 4 in macrolon cages type II under a reversed 12 h day/night cycle (lights off 7 p.m.). The mice were adapted to the reversed light/dark cycle for at least 3 weeks prior to testing. The room temperature (21±2° C.), relative humidity (55±5%), and air exchange (16 times per h) were automatically controlled. The animals had free access to commercial food pellets and water. The test box used was designed as described by Sánchez (1995) (supra). […] The lower row of photocells (2 cm above cage floor) detected horizontal locomotor activity (crossing, entries, and time in each compartment), whereas the upper row of photocells (5 cm above cage floor) detected rearing activity. The accumulated data for 1 min intervals were recorded from 4 test boxed simultaneously and stored in a Paradox data base. […] The test duration was 5 min and the number of rears and line crossings between squares in both the black and the white compartment, number of entries into the black compartment and time spent in the white compartment were assessed.

Two compounds from patent US6960613B2, “Treatment of neurotic disorders” (H. Lundbeck A/S, priority 1999, dated 2005) can be followed below.

As to `CN(C)CCC[C@@]1(c2ccc(F)cc2)OCc2cc(C#N)ccc21` [escitalopram, (S)-1-[3-(dimethyl-amino)propyl]-1-(4-fluorophenyl)-1,3-dihydro-5-isobenzofurancarbonitrile], the “inhibition of vocalisation” value in test [1] is “able to inhibit vocalisation completely”. Besides, in test [2], the “water intake (percentage of pre-dosing baseline level)” value is “significant reduction in water intake”. Also, in test [3], the “effect in black and white box model” value is given as “prominent effects”.
Regarding `CN(C)CCCC1(c2ccc(F)cc2)OCc2cc(C#N)ccc21` (racemic) [citalopram, reference compound], in test [1], the “maximum effect, inhibition of vocalisation” value was 60-70%. Besides, the “water intake (percentage of pre-dosing baseline level)” value in test [2] is “without effect”.
